Values after ≈ are worked out from the molar mass of the structure shown.
Assays:
[1] = Hydroxylamine-Extinguishable Absorbance; assay type: physicochemical; conditions: pure thienamycin; 10 mM. hydroxylamine, pH 7.0, room temperature, at least 30 min., 297 nm
Procedure: The proportion of absorbance measured at 297 nm which can be attributed to the antibiotic content in impure samples is determined by the selective extinction of this absorbance (with concommitant inactivation of antibiotic activity) upon reaction with dilute hydroxylamine.
Samples are prepared in 0.01M potassium phosphate buffer at pH 7.0 to have an initial A297 between 0.05 and 2.0. Freshly prepared, neutral hydroxylamine (NH2 OH.HCl plus NaOH to a final pH of 7) is added to a final concentration of 10 mM., and reaction is allowed to progress at room temperature for at least 30 min. The resulting A297 when substracted from the initial reading (after correction for dilution by added reagent) yields the hydroxylamine-extinguishable absorbance. Solutions of pure thienamycin show a hydroxylamine-extinguishable absorbance of 94.5%.

β-lactamase = β-lactamase (Enterobacter cloacae, UniProt P05364); assay: exposure to β-lactamase preparations; assay type: biochemical; conditions: β-lactamase from sonic disintegration of a strain of Enterobacter cloacae
β-lactamase, sequence (P05364 21-381): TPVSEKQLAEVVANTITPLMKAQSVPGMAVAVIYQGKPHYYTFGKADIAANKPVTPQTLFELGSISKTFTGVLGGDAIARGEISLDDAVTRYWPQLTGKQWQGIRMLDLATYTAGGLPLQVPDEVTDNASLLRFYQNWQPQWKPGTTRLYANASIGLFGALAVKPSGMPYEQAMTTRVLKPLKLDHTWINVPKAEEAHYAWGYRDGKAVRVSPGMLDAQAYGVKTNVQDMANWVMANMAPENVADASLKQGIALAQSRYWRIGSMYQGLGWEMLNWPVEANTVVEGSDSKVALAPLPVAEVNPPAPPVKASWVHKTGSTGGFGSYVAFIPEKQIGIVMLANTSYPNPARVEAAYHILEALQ
From the text: Finally, antibiotic activity and absorbance are extinguished on exposure to preparations of β-lactamase obtained by the sonic disintegration of a strain of Enterobacter cloacae.

Staph. aureus 2949 = assay: in vivo efficacy in infected mice, Table 3; parameters: species or system Staphylococcus aureus; conditions: 168 h, day 7 survival
Procedure: (§1) In determining the in vivo activity, thienamycin is dissolved in and diluted with 0.15M NaCl, 0.01M sodium phosphate, pH 7.0, to provide five fourfold concentrations of drug for testing. Female white Swiss mice, averaging about 21 g. in weight, were infected intraperitoneally and subcutaneously with the test organism suspended in broth. The numbers of organisms injected were determined by standard plate-count techniques. At the time of infection, and again 6 hours later, certain of the mice were treated intraperitoneally, subcutaneously and orally with the antibiotic. Five mice were used for each concentration of drug tested. An additional two mice, not infected, were treated with the antibiotic to determine whether the amount of agent injected was toxic. Controls of five mice for each of several dilutions of the infecting culture were included in each test in order to calculate the numbers of organisms that were lethal to 50% of the infected, untreated mice (LD50). This calculation was made using survival data of the seventh day after infection, at which time the amount of drug that should protect 50% of the infected mice (ED50) also was calculated.
(§2) All animals receiving this challenge and not treated with antibiotic died within 48 hours of the infection. The efficacy of thienamycin having a potency of 30,000 units per mg. is recorded in Table 3: […]

[2] = stability in aqueous solution; assay type: physicochemical
solubility = assay type: physicochemical
Escherichia coli 2017 = assay: agar dilution method, Table 2; assay type: cell-based; conditions: Mueller-Hinton agar, 18 hours, 37° C., strain resistance: --, read-out: Minimum Inhibitory Concentration
Procedure: (§3) A further evaluation of substantially pure antibiotic employed the agar dilution method. An inoculum of 2 × 10^4 to 1 × 10^5 organisms is applied as a 0.002 ml. droplet to the surface of Mueller-Hinton agar containing serial, twofold dilutions of antibiotic over the range 0.01 to 73 μg./ml. The results (Table 2) are reported as the minimum inhibitory concentration, in μg./ml., that being the lowest antibiotic concentration at which the growth of the test organism is inhibited over a period of 18 hours at 37° C.

[3] = system: Staphylococcus aureus 2314; assay: agar dilution method, Table 2; assay type: cell-based; conditions: Mueller-Hinton agar, 18 hours, 37° C., strain resistance: P, read-out: Minimum Inhibitory Concentration
Procedure: as §3

[4] = system: Pseudomonas aeruginosa 2824; assay: agar dilution method, Table 2; assay type: cell-based; conditions: Mueller-Hinton agar, 18 hours, 37° C., strain resistance: P, read-out: Minimum Inhibitory Concentration
Procedure: as §3

Klebsiella 2921 = assay: agar dilution method, Table 2; assay type: cell-based; conditions: Mueller-Hinton agar, 18 hours, 37° C., strain resistance: P, read-out: Minimum Inhibitory Concentration
Procedure: as §3

[5] = system: Pseudomonas aeruginosa 2616; assay: agar dilution method, Table 2; assay type: cell-based; conditions: Mueller-Hinton agar, 18 hours, 37° C., strain resistance: P, read-out: Minimum Inhibitory Concentration
Procedure: as §3

Escherichia coli 2482 = assay: agar dilution method, Table 2; assay type: cell-based; conditions: Mueller-Hinton agar, 18 hours, 37° C., strain resistance: --, read-out: Minimum Inhibitory Concentration
Procedure: as §3

Proteus mirabilis 2830 = assay: agar dilution method, Table 2; assay type: cell-based; conditions: Mueller-Hinton agar, 18 hours, 37° C., strain resistance: P, read-out: Minimum Inhibitory Concentration
Procedure: as §3

Klebsiella 2922 = assay: agar dilution method, Table 2; assay type: cell-based; conditions: Mueller-Hinton agar, 18 hours, 37° C., strain resistance: P, read-out: Minimum Inhibitory Concentration
Procedure: as §3

Serratia 2840 = assay: agar dilution method, Table 2; assay type: cell-based; conditions: Mueller-Hinton agar, 18 hours, 37° C., strain resistance: P, read-out: Minimum Inhibitory Concentration
Procedure: as §3

Escherichia coli 2964 = assay: agar dilution method, Table 2; assay type: cell-based; conditions: Mueller-Hinton agar, 18 hours, 37° C., strain resistance: P, read-out: Minimum Inhibitory Concentration
Procedure: as §3

[6] = system: Pseudomonas aeruginosa 3210; assay: agar dilution method, Table 2; assay type: cell-based; conditions: Mueller-Hinton agar, 18 hours, 37° C., strain resistance: P, read-out: Minimum Inhibitory Concentration
Procedure: as §3

E. coli 2017 = assay: in vivo efficacy in infected mice, Table 3; conditions: Escherichia coli, 2017, ip, 168 h, i.p. x2 (at infection and 6 hours later), No. LD50 9, day 7 survival
Procedure: as §1, §2

[7] = system: Pseudomonas aeruginosa 3210; assay: in vivo efficacy in infected mice, Table 3; conditions: 168 h, No. LD50 7, day 7 survival
Procedure: as §1, §2

[8] = system: Staphylococcus aureus ATCC 6538P; assay: disc-diffusion assay of antibacterial activity (5 ml plates); assay type: cell-based; conditions: one unit = same inhibition as 1 μg. of cephalothin/ml.
Procedure: Assays of antibacterial activity are run according to the following disc-diffusion procedure unless otherwise indicated. The assay plates are prepared in the following manner. An overnight growth of the assay organism, Staphylococcus aureus ATCC 6538P, in nutrient broth plus 0.2% yeast extract is diluted with nutrient broth plus 0.2% yeast extract to a suspension having 55% transmittance at a wavelength of 660 mμ. This suspension is added to Difco nutrient agar supplemented with 2.0 g./l. Difco yeast extract, at 47° C. to 48° C., to make a composition containing 33.2 ml. of the suspension per liter of agar. Five ml. of this suspension is poured into petri dishes of 85 mm. diameter, and these plates are chilled and held at 4° C. until used (5 day maximum).
Samples of the antibiotic to be assayed are diluted to an appropriate concentration in phosphate buffer at pH 7. Filter-paper discs, 0.5-inch in diameter, are dipped into the test solution and placed on the surface of the assay plate; two discs for each sample are normally placed on one plate opposite to one another. The plates are incubated overnight at 37° C. and the zone of inhibition is measured as mm. diameter. The zone of inhibition measured in mm. determines relative potencies or, when compared with a purified reference standard such as cephalothin, the potency of antibiotic in units/ml. The unit of activity reported in Examples 4 through 7 is based on cephalothin standard solutions of 8, 4, 2 and 1 μg./ml. One unit is defined as the amount which calculates to produce the same inhibition as 1 μg. of cephalothin/ml. that zone of inhibition being between 16 and 21 mm. diameter.

[9] = pKa from pH induced shift in ultraviolet absorption spectrum; assay type: physicochemical; conditions: acidic function; 30 mM. phosphate buffer; read-out: pKa1
Procedure: Thienamycin is an internally neutralized amphoteric substance, whose acidic function has a pKa1 = 3.08 when measured in 30 mM. phosphate buffer, taking advantage of the pH induced shift in ultraviolet absorption spectrum.

inactivation by cysteine = assay type: physicochemical; conditions: cysteine 4 μmoles per ml., pH 7.0, 20° C.

C[C@@H](O)[C@H]1C(=O)N2C(C(=O)O)=C(SCCN)C[C@H]12 [Thienamycin, thienamycin]
hydroxylamine-extinguishable absorbance [1]: 94.5% | antibiotic activity and absorbance on exposure to β-lactamase (β-lactamase): extinguished | ED50 (Staph. aureus 2949; Staphylococcus aureus, 2949, ip, mice, i.p. x2 (at infection and 6 hours later), No. LD50 7): 0.012 mg/kg | ED50 (Staph. aureus 2949; Staphylococcus aureus, 2949, po, mice fasted 24 hours, p.o. x2 (at infection and 6 hours later), No. LD50 13): 0.67 mg/kg | ED50 (Staph. aureus 2949; Staphylococcus aureus, 2949, sc, mice, s.c. x2 (at infection and 6 hours later), No. LD50 7): 0.08 mg/kg | half-life ([2]; 1 mg./ml. in 10 mM. potassium phosphate, pH 7.0, 0° C.): 53300 min | half-life ([2]; 1 mg./ml. in water (pH 7.0), 0° C.): 28800 min | half-life ([2]; 12 mg./ml. in 10 mM. phosphate buffer, 10° C.): 4320 min | coloration on storage ([2]; 12 mg./ml. in 10 mM. phosphate buffer, 10° C., by the 48th hour, initially pale yellow): deep amber coloration | half-life ([2]; aqueous solution, pH 8.2, 30° C.): 10 min | stability in aqueous solution ([2]; below 1 mg./ml., phosphate buffers, pH between 6 and 7): optimum stability | half-life ([2]; pH 2.0, 30 mM. phosphate buffer, room temperature): 6.7 min | half-life ([2]; pH 3.0, 30 mM. phosphate buffer, room temperature): 30 min | half-life ([2]; pH 4.0, 30 mM. phosphate buffer, room temperature): 346 min | half-life ([2]; pH 8.8 (borate buffer), 30° C.): 5.7 min | half-life ([2]; pH 12 (0.01M sodium hydroxide), 30° C.): 2.1 min | solubility in methanol (solubility; methanol): limited solubility in methanol | solubility in water (solubility; water): very soluble in water | MIC (Escherichia coli 2017): 0.15 µg/mL (≈ 0.551 µM) | MIC [3]: 0.02 µg/mL (≈ 0.0734 µM) | MIC [4]: 0.6 µg/mL (≈ 2.2 µM) | MIC (Klebsiella 2921): 0.3 µg/mL (≈ 1.1 µM) | MIC [5]: 4.7 µg/mL (≈ 17.3 µM) | MIC (Escherichia coli 2482): 0.3 µg/mL (≈ 1.1 µM) | MIC (Proteus mirabilis 2830): 4.7 µg/mL (≈ 17.3 µM) | MIC (Klebsiella 2922): 0.3 µg/mL (≈ 1.1 µM) | MIC (Serratia 2840): 4.7 µg/mL (≈ 17.3 µM) | MIC (Escherichia coli 2964): 0.3 µg/mL (≈ 1.1 µM) | MIC [6]: 2.4 µg/mL (≈ 8.81 µM) | ED50 (E. coli 2017): 0.375 mg/kg | ED50 ([7]; Pseudomonas aeruginosa, 3210, ip, i.p. x3 (at infection, 2 and 4 hours)): 0.45 mg/kg | ED50 ([7]; Pseudomonas aeruginosa, 3210, sc, s.c. x3 (at infection, 2 and 4 hours)): 2.05 mg/kg | potency (estimated / calculated) ([8]; estimated or calculated potency): 30,140 units/mg. | potency [8]: 30,000 units/mg. | pKa [9]: 3.08 | half-life (inactivation by cysteine): 2.5 min

Source: patent US4081548A, “Antibiotics” (Merck & Co., Inc., priority 1976, dated 1978)
